Test results as given in EP0385381A2, “Inhibitor of restenosis after percutaneous transluminal coronary angioplasty” (DAIICHI PHARMACEUTICAL CO., LTD., priority 1989, dated 1990).
Where a name gives a salt, the structure may show the parent alone.

Tested on: post-PTCA restenosis
Test: Clinical study of inhibition of post-PTCA restenosis, evaluated from coronary angiographic findings
Assay type: in vivo, patients with angina pectoris
Procedure: In 18 patients with angina pectoris in whom elective PTCA was indicated, 6-(1-imidazolylmethyl)- 5,6,7,8-tetrahydronaphthalene-2-carboxylic acid hydrochloride hemihydrate (hereinafter, referred to as Compound A) was administered orally in a dose of 200 mg three times a day after each meal (600 mg/day) pre-angioplasty, beginning about three days before PTCA, and post angioplasty for 3 months (treated group). Coronary angiography was performed before, immediately after, and 3 months after PTCA. Based on the coronary angiographic findings, inhibition of restenosis of the right coronary artery, left anterior descending artery and left circumflex artery was evaluated, by site of lesion, according to the criteria in Table 1 shown below. Further, based on the results of the evaluation, overall efficacy evaluation by individual patient was made.
In regard to luminal diameter: • 1. Excellent post-angioplasty course: unchanged or expanded • 2. Good post-angioplasty course: a decrease in luminal diameter of less than 50% • 3. Poor post-angioplasty course: a decrease in luminal diameter of 50% or more and less than 100% • 4. Worse post-angioplasty course: a decrease in luminal diameter of 100% or progression of stenosis as compared with pre-PTCA condition
As controls (control group), placebo was similarly administered to 15 patients with angina pectoris in whom effective PTCA was indicated and coronary angiography was performed before and after PTCA.
In both of the treated and control groups, calcium antagonists, viz. nifedipine and diltiazem, antianginal drugs, viz. ISDN and nicorandil, and antiarteriosclerotic agents, viz. elastase, etc. were used concurrently as necessary as shown in Table 2 below. However, there was no significant difference (χ² test) between the two groups in the use of concomitant drugs, as in other patient characteristics.

[1] = Left Anterior Descending Artery, number of lesions rated (of 9), 600 mg/day oral, 3 months after PTCA
[2] = Left Circumflex Artery, number of lesions rated (of 11), 600 mg/day oral, 3 months after PTCA
[3] = Right Coronary Artery, number of lesions rated (of 8), 600 mg/day oral, 3 months after PTCA
[4] = Total, number of lesions rated (of 28), Wilcoxon test P=0.100 vs control group
[5] = number of patients rated (of 18), Wilcoxon test P=0.010 vs control group

SMILES: O=C(O)c1ccc2c(c1)CCC(Cn1ccnc1)C2 (stereo not drawn) [Compound A, 6-(1-imidazolylmethyl)-5,6,7,8-tetrahydronaphthalene-2-carboxylic acid hydrochloride hemihydrate]
- Overall Efficacy Evaluation, by Individual Patient: Excellent, Cumulative % (18 patients): (38.9%)
- Overall Efficacy Evaluation, by Individual Patient: Good, Cumulative % (18 patients, Excellent plus Good): (77.8%)
- Evaluation of coronary angiographic findings by site of lesion: Excellent [1]: 4
- Evaluation of coronary angiographic findings by site of lesion: Good [1]: 3
- Evaluation of coronary angiographic findings by site of lesion: Poor [1]: 1
- Evaluation of coronary angiographic findings by site of lesion: Worse [1]: 1
- Evaluation of coronary angiographic findings by site of lesion: Excellent [2]: 2
- Evaluation of coronary angiographic findings by site of lesion: Good [2]: 7
- Evaluation of coronary angiographic findings by site of lesion: Poor [2]: 1
- Evaluation of coronary angiographic findings by site of lesion: Worse [2]: 1
- Evaluation of coronary angiographic findings by site of lesion: Excellent [3]: 3
- Evaluation of coronary angiographic findings by site of lesion: Good [3]: 4
- Evaluation of coronary angiographic findings by site of lesion: Poor [3]: 0
- Evaluation of coronary angiographic findings by site of lesion: Worse [3]: 1
- Evaluation of coronary angiographic findings by site of lesion: Excellent, Cumulative % (Total of 28 lesions): (32.1%)
- Evaluation of coronary angiographic findings by site of lesion: Good, Cumulative % (Total of 28 lesions, Excellent plus Good): (83.1%)
- Evaluation of coronary angiographic findings by site of lesion: Excellent [4]: 9
- Evaluation of coronary angiographic findings by site of lesion: Good [4]: 14
- Evaluation of coronary angiographic findings by site of lesion: Poor [4]: 2
- Evaluation of coronary angiographic findings by site of lesion: Worse [4]: 3
- Overall Efficacy Evaluation, by Individual Patient: Excellent (number of patients rated (of 18), Wilcoxon test P=0.010, Fisher test (excellent ratings) P=0.009 vs control group): 7
- Overall Efficacy Evaluation, by Individual Patient: Good [5]: 7
- Overall Efficacy Evaluation, by Individual Patient: Poor [5]: 3
- Overall Efficacy Evaluation, by Individual Patient: Worse [5]: 1
